In PubChem BioAssay (NCI):
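Results reflect a 48-hour exposure of cells in 96-well plates to compound at five concentrations. At the TGI there is no net growth.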

What was measured:
Experiment in all cases: NCI-60 cell line screen, 48 h
[1] = tested on: MDA-MB-435
[2] = tested on: HOP-62 NSCLC
[3] = tested on: NCI/ADR-RES ovarian
[4] = tested on: HL-60(TB) leukemia
[5] = tested on: RPMI-8226 leukemia
[6] = tested on: NCI-H23 lung
[7] = tested on: OVCAR-4 ovarian
[8] = tested on: U251 CNS
[9] = tested on: A498 renal
[10] = tested on: NCI-H522 lung
[11] = tested on: K-562 leukemia
[12] = tested on: CCRF-CEM leukemia
[13] = tested on: HOP-92 NSCLC
[14] = tested on: OVCAR-3 ovarian
[15] = tested on: BT-549 breast
[16] = tested on: SNB-75 CNS
[17] = tested on: OVCAR-8 ovarian
[18] = tested on: TK-10 renal
[19] = tested on: SF-268 CNS
[20] = tested on: HT29 colon
[21] = tested on: SR leukemia
[22] = tested on: UACC-257 melanoma
[23] = tested on: NCI-H226 lung
[24] = tested on: OVCAR-5 ovarian
[25] = tested on: MCF7 breast
[26] = tested on: HCT-116 colon
[27] = tested on: ACHN renal
[28] = tested on: UACC-62 melanoma
[29] = tested on: A549 NSCLC
[30] = tested on: EKVX NSCLC
[31] = tested on: COLO 205 colon
[32] = tested on: MDA-MB-231 breast
[33] = tested on: DU-145 prostate
[34] = tested on: SF-295 CNS
[35] = tested on: SN12C renal
[36] = tested on: 786-0 renal
[37] = tested on: T-47D breast
[38] = tested on: LOX IMVI melanoma
[39] = tested on: MOLT-4 leukemia
[40] = tested on: RXF 393 renal
[41] = tested on: NCI-H460 lung
[42] = tested on: MDA-N
[43] = tested on: HCT-15 colon
[44] = tested on: HCC-2998 colon
[45] = tested on: HS 578T breast
[46] = tested on: SK-MEL-28 melanoma
[47] = tested on: CAKI-1 renal
[48] = tested on: PC-3 prostate
[49] = tested on: SF-539 CNS
[50] = tested on: UO-31 renal
[51] = tested on: SK-MEL-2 melanoma
[52] = tested on: MALME-3M melanoma
[53] = tested on: SW-620 colon
[54] = tested on: KM12 colon
[55] = tested on: SK-MEL-5 melanoma
[56] = tested on: SK-OV-3 ovarian
[57] = tested on: M14 melanoma
[58] = tested on: SNB-19 CNS
[59] = tested on: IGROV1 ovarian

Compound: O=c1[nH]nc(-c2ccccc2)n1/N=C\c1ccccc1
- TGI [1]: > 100 µM
- TGI [2]: > 100 µM
- TGI [3]: > 100 µM
- TGI [4]: > 100 µM
- TGI [5]: > 100 µM
- TGI [6]: > 100 µM
- TGI [7]: > 100 µM
- TGI [8]: > 100 µM
- TGI [9]: > 100 µM
- TGI [10]: > 100 µM
- TGI [11]: > 100 µM
- TGI [12]: > 100 µM
- TGI [13]: > 100 µM
- TGI [14]: > 100 µM
- TGI [15]: > 100 µM
- TGI [16]: > 100 µM
- TGI [17]: > 100 µM
- TGI [18]: > 100 µM
- TGI [19]: > 100 µM
- TGI [20]: > 100 µM
- TGI [21]: > 100 µM
- TGI [22]: > 100 µM
- TGI [23]: > 100 µM
- TGI [24]: > 100 µM
- TGI [25]: > 100 µM
- TGI [26]: > 100 µM
- TGI [27]: > 100 µM
- TGI [28]: > 100 µM
- TGI [29]: > 100 µM
- TGI [30]: > 100 µM
- TGI [31]: > 100 µM
- TGI [32]: > 100 µM
- TGI [33]: > 100 µM
- TGI [34]: > 100 µM
- TGI [35]: > 100 µM
- TGI [36]: > 100 µM
- TGI [37]: > 100 µM
- TGI [38]: > 100 µM
- TGI [39]: > 100 µM
- TGI [40]: > 100 µM
- TGI [41]: > 100 µM
- TGI [42]: > 100 µM
- TGI [43]: > 100 µM
- TGI [44]: > 100 µM
- TGI [45]: > 100 µM
- TGI [46]: > 100 µM
- TGI [47]: > 100 µM
- TGI [48]: > 100 µM
- TGI [49]: > 100 µM
- TGI [50]: > 100 µM
- TGI [51]: > 100 µM
- TGI [52]: > 100 µM
- TGI [53]: > 100 µM
- TGI [54]: > 100 µM
- TGI [55]: > 100 µM

Compound: O=C1C[C@@H](C(=O)OCc2ccccc2)NC(=O)C[C@@H](C(=O)OCc2ccccc2)NC(=O)C[C@@H](C(=O)OCc2ccccc2)N1
- TGI [1]: > 100 µM
- TGI [2]: > 88.5 µM
- TGI [3]: > 100 µM
- TGI [4]: 9.88 µM
- TGI [5]: > 100 µM
- TGI [6]: > 100 µM
- TGI [7]: > 100 µM
- TGI [8]: > 100 µM
- TGI [9]: > 95.1 µM
- TGI [56]: 97.1 µM
- TGI [10]: > 100 µM
- TGI [11]: 21.8 µM
- TGI [12]: 2.01 µM
- TGI [13]: > 60.7 µM
- TGI [14]: > 100 µM
- TGI [15]: > 100 µM
- TGI [16]: 13.7 µM
- TGI [57]: > 100 µM
- TGI [17]: > 100 µM
- TGI [18]: 73.6 µM
- TGI [19]: 85.8 µM
- TGI [20]: > 100 µM
- TGI [21]: 20.7 µM
- TGI [22]: > 100 µM
- TGI [23]: > 100 µM
- TGI [24]: > 100 µM
- TGI [25]: > 100 µM
- TGI [26]: > 100 µM
- TGI [27]: > 62.9 µM
- TGI [28]: > 100 µM
- TGI [29]: > 100 µM
- TGI [30]: > 100 µM
- TGI [31]: > 100 µM
- TGI [32]: 70.9 µM
- TGI [33]: > 100 µM
- TGI [34]: > 100 µM
- TGI [35]: > 100 µM
- TGI [36]: > 100 µM
- TGI [37]: > 100 µM
- TGI [38]: > 100 µM
- TGI [39]: 27.3 µM
- TGI [40]: 41.8 µM
- TGI [41]: > 100 µM
- TGI [42]: > 100 µM
- TGI [43]: > 100 µM
- TGI [44]: > 100 µM
- TGI [45]: 72.3 µM
- TGI [46]: > 100 µM
- TGI [47]: > 100 µM
- TGI [48]: > 100 µM
- TGI [49]: > 72.3 µM
- TGI [58]: > 100 µM
- TGI [50]: > 100 µM
- TGI [51]: 66.1 µM
- TGI [53]: > 100 µM
- TGI [54]: > 100 µM
- TGI [55]: > 100 µM
- TGI [59]: > 100 µM

Compound: CCCCCCCC/C=C\CCCCCCC/C=C1\C[C@](/C=C/C(=O)OC)(CO)OC1=O
- TGI [1]: 3.22 µM
- TGI [2]: 9.18 µM
- TGI [3]: 14.6 µM
- TGI [4]: 6.14 µM
- TGI [6]: 16.1 µM
- TGI [7]: 10.9 µM
- TGI [8]: 5.92 µM
- TGI [9]: 22.7 µM
- TGI [56]: 19.1 µM
- TGI [10]: 8.61 µM
- TGI [11]: 15.3 µM
- TGI [12]: > 23 µM
- TGI [13]: 21.1 µM
- TGI [14]: 16.6 µM
- TGI [15]: 7.15 µM
- TGI [16]: 4.59 µM
- TGI [57]: 4.34 µM
- TGI [17]: 8.5 µM
- TGI [18]: 8 µM
- TGI [19]: 4.4 µM
- TGI [20]: 25.8 µM
- TGI [21]: > 23.5 µM
- TGI [22]: 26.6 µM
- TGI [23]: 6.66 µM
- TGI [24]: 19.5 µM
- TGI [25]: 14.7 µM
- TGI [26]: 6.26 µM
- TGI [27]: 7.9 µM
- TGI [28]: 20.1 µM
- TGI [29]: 17.8 µM
- TGI [30]: 24.7 µM
- TGI [31]: 5.02 µM
- TGI [32]: 6.6 µM
- TGI [33]: 24.6 µM
- TGI [34]: 14.1 µM
- TGI [35]: 4.01 µM
- TGI [36]: 3.61 µM
- TGI [37]: 13.1 µM
- TGI [38]: 3.02 µM
- TGI [39]: 10.6 µM
- TGI [40]: 12.3 µM
- TGI [41]: 20.2 µM
- TGI [42]: 2.27 µM
- TGI [43]: 8.22 µM
- TGI [44]: 13.8 µM
- TGI [45]: 4.69 µM
- TGI [46]: 3.38 µM
- TGI [47]: 4.15 µM
- TGI [48]: 6.96 µM
- TGI [49]: 3.82 µM
- TGI [58]: 16 µM
- TGI [50]: 3.76 µM
- TGI [51]: 23.9 µM
- TGI [52]: 2.86 µM
- TGI [53]: 3.78 µM
- TGI [54]: 14.2 µM
- TGI [55]: 16.8 µM
- TGI [59]: 6.29 µM

Compound: O=C1NNC2(C(=O)N1)c1ccccc1-c1ccccc12
- TGI [1]: > 10 µM
- TGI [2]: > 10 µM
- TGI [3]: > 10 µM
- TGI [4]: > 10 µM
- TGI [5]: > 10 µM
- TGI [6]: > 10 µM
- TGI [7]: > 10 µM
- TGI [56]: > 10 µM
- TGI [10]: > 10 µM
- TGI [11]: > 10 µM
- TGI [12]: > 10 µM
- TGI [13]: > 10 µM
- TGI [15]: > 10 µM
- TGI [16]: > 10 µM
- TGI [57]: > 10 µM
- TGI [17]: > 10 µM
- TGI [18]: > 10 µM
- TGI [19]: > 10 µM
- TGI [20]: > 10 µM
- TGI [21]: > 10 µM
- TGI [22]: > 10 µM
- TGI [23]: > 10 µM
- TGI [25]: > 10 µM
- TGI [26]: > 10 µM
- TGI [27]: > 10 µM
- TGI [28]: > 10 µM
- TGI [29]: > 10 µM
- TGI [30]: > 10 µM
- TGI [31]: > 10 µM
- TGI [32]: > 10 µM
- TGI [33]: > 10 µM
- TGI [34]: > 10 µM
- TGI [35]: > 10 µM
- TGI [36]: > 10 µM
- TGI [37]: > 10 µM
- TGI [38]: > 10 µM
- TGI [39]: > 10 µM
- TGI [40]: > 10 µM
- TGI [41]: > 10 µM
- TGI [42]: > 10 µM
- TGI [43]: > 10 µM
- TGI [44]: > 10 µM
- TGI [45]: > 10 µM
- TGI [46]: > 10 µM
- TGI [47]: > 10 µM
- TGI [48]: > 10 µM
- TGI [49]: > 10 µM
- TGI [58]: > 10 µM
- TGI [50]: > 10 µM
- TGI [52]: > 10 µM
- TGI [53]: > 10 µM
- TGI [54]: > 10 µM
- TGI [55]: > 10 µM
- TGI [59]: > 10 µM
